Source: the supplement of paper PMC11208160

Assay: recombinant UMI read abundance after kanamycin selection (control-corrected) (log10(CPM+1)); higher = more efficient recombination; extreme values may be limits of the assay; sequences stand for … in AGTGCAGAGAAAATCGGCCAGTTTTCTCTGCCTGCAGTCCGCATGCCGTGGGACCCCTTGGGTTCTAACCTGTTGCCTAGATTTATGCAGCGGACTGCCTTTCTCCCAAAGTGATAAACCGG…AGGTTGGTTTCACT; site = the 11-nt donor
How it was run: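 After plating on IPTG (0.07 mM) plus kanamycin, or unselected, in two replicates, recombinant UMIs were PCR-amplified across the donor–target junction and sequenced. The cells were Escherichia coli co-electroporated with a UMI-tagged donor and donor-binding-loop pair library and a target plasmid with a fixed target and T7-inducible IS621 bridge recombinase. Values are log10(CPM+1), with CPM averaged over replicates and scaled by control-derived factors.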

Row | Sequence | recombinant UMI read abundance (log10)
1 | ATAGCTACATGGACCGGTTTTCCCGGTAATCCGTATTTGCG (site ATAGCTACTCG) | 2.1
2 | ATAGCTACATGGACCGGTTTTCCCGGTAATCCGTATTTGTA (site ATAGCTACTTA) | 2.3
3 | ATAGGTACATGGACCGGTTTTCCCGGTAATCCGTATTTGAC (site ATAGGTACTGT) | 2.8
4 | ATAGGTACATGGACCGGTTTTCCCGGTAATCCGTATTTGAC (site CTAGGTACTGT) | 1.97
5 | ATAGGTACATGGACCGGTTTTCCCGGTAATCCGTATTTGAC (site GTAGGTACTGT) | 1.68
6 | ATAGGTACATGGACCGGTTTTCCCGGTAATCCGTATTTGAC (site TTAGGTACTGT) | 2.15
7 | ATAGTAGCATGGACCGGTTTTCCCGGTAATCCGTATTTGCA (site ACAGTATCTTG) | 0.993
8 | ATAGTAGCATGGACCGGTTTTCCCGGTAATCCGTATTTGCA (site ATAGTAGCTTG) | 3.08
9 | ATAGTATCATGGACCGGTTTTCCCGGTAATCCGTATTTGAC (site ATAGTATCTGT) | 3.75
10 | ATAGTATCATGGACCGGTTTTCCCGGTAATCCGTATTTGAC (site CTAGTATCTGT) | 2.94
11 | ATAGTATCATGGACCGGTTTTCCCGGTAATCCGTATTTGAC (site GTAGTATCTGT) | 2.49
12 | ATAGTATCATGGACCGGTTTTCCCGGTAATCCGTATTTGAC (site TTAGTATCTGT) | 2.66
13 | ATAGTATCATGGACCGGTTTTCCCGGTAATCCGTATTTGCA (site AAAGTATCTTG) | 2.4
14 | ATAGTATCATGGACCGGTTTTCCCGGTAATCCGTATTTGCA (site ACAGTATCTTG) | 2.34
15 | ATAGTATCATGGACCGGTTTTCCCGGTAATCCGTATTTGCA (site AGAGTATCTTG) | 2.15
16 | ATAGTATCATGGACCGGTTTTCCCGGTAATCCGTATTTGCA (site ATAGTATCTTG) | 3.37
17 | ATAGTATCATGGACCGGTTTTCCCGGTAATCCGTATTTGCC (site ATAGTATCTGG) | 3.34
18 | ATAGTATCATGGACCGGTTTTCCCGGTAATCCGTATTTGCC (site CTAGTATCTGT) | 0.756
19 | ATATACCCATGGACCGGTTTTCCCGGTAATCCGTATTTGCG (site ATATACCCTCG) | 0.817
20 | ATATATGCATGGACCGGTTTTCCCGGTAATCCGTATTTGCT (site ATATATGCTAG) | 2.99
21 | ATATCACCATGGACCGGTTTTCCCGGTAATCCGTATTTGCT (site ATATCACCTAG) | 0
22 | ATATCATCATGGACCGGTTTTCCCGGTAATCCGTATTTGCG (site ATATCATCTCG) | 2.11
23 | ATATCTACATGGACCGGTTTTCCCGGTAATCCGTATTTGTG (site AAATCTACTCA) | 0.252
24 | ATATCTACATGGACCGGTTTTCCCGGTAATCCGTATTTGTG (site ACATCTACTCA) | 0.246
25 | ATATCTACATGGACCGGTTTTCCCGGTAATCCGTATTTGTG (site AGATCTACTCA) | 0.401

Row | Sequence | recombinant UMI read abundance (log10)
26 | ATATCTACATGGACCGGTTTTCCCGGTAATCCGTATTTGTG (site ATATCTACTCA) | 0.895
27 | ATATCTGCATGGACCGGTTTTCCCGGTAATCCGTATTTGGC (site ATATCTGCTGC) | 0.5
28 | ATATGAACATGGACCGGTTTTCCCGGTAATCCGTATTTGTC (site ATATGAACTGA) | 2.77
29 | ATATGTCCATGGACCGGTTTTCCCGGTAATCCGTATTTGTC (site ATATGTCCTGA) | 0.623
30 | ATATTGTCATGGACCGGTTTTCCCGGTAATCCGTATTTGTC (site ATATTGTCTGA) | 3.25
31 | ATCAAGGCATGGACCGGTTTTCCCGGTAATCCGTATTTGCG (site ATCAAGGCTCG) | 1.32
32 | ATCAATACATGGACCGGTTTTCCCGGTAATCCGTATTTGAC (site ATCAATACTGT) | 1.74
33 | ATCAATACATGGACCGGTTTTCCCGGTAATCCGTATTTGAC (site ATCCATACTGT) | 0
34 | ATCAATACATGGACCGGTTTTCCCGGTAATCCGTATTTGAC (site ATCGATACTGT) | 2.2
35 | ATCAATACATGGACCGGTTTTCCCGGTAATCCGTATTTGAC (site ATCTATACTGT) | 0
36 | ATCAGAACATGGACCGGTTTTCCCGGTAATCCGTATTTGAT (site ATCAGAACTAT) | 1.88
37 | ATCAGAGCATGGACCGGTTTTCCCGGTAATCCGTATTTGTC (site ATCAGAGCTGA) | 1.82
38 | ATCATGGCATGGACCGGTTTTCCCGGTAATCCGTATTTGCA (site ATCATGGCTTG) | 2.21
39 | ATCCAAGCATGGACCGGTTTTCCCGGTAATCCGTATTTGTG (site ATCCAAGCTCA) | 1.51
40 | ATCCAAGCATGGACCGGTTTTCCCGGTAATCCGTATTTGTG (site ATCCAAGCTCC) | 0.0133
41 | ATCCAAGCATGGACCGGTTTTCCCGGTAATCCGTATTTGTG (site ATCCAAGCTCG) | 1.13
42 | ATCCAAGCATGGACCGGTTTTCCCGGTAATCCGTATTTGTG (site ATCCAAGCTCT) | 0.581
43 | ATCCCAGCATGGACCGGTTTTCCCGGTAATCCGTATTTGAG (site ATCCAAGCTCT) | 0.00798
44 | ATCCCAGCATGGACCGGTTTTCCCGGTAATCCGTATTTGAG (site ATCCCAGCTCT) | 0.952
45 | ATCCCAGCATGGACCGGTTTTCCCGGTAATCCGTATTTGAG (site ATCCGAGCTCT) | 0.00574
46 | ATCCCAGCATGGACCGGTTTTCCCGGTAATCCGTATTTGAG (site ATCCTAGCTCT) | 0
47 | ATCCCTACATGGACCGGTTTTCCCGGTAATCCGTATTTGAG (site ATCCCTACTCT) | 0.465
48 | ATCCCTACATGGACCGGTTTTCCCGGTAATCCGTATTTGAG (site CTCCCTACTCT) | 0.196
49 | ATCCCTACATGGACCGGTTTTCCCGGTAATCCGTATTTGAG (site GTCCCTACTCT) | 0.0127
50 | ATCCCTACATGGACCGGTTTTCCCGGTAATCCGTATTTGAG (site TTCCCTACTCT) | 0.854

Row | Sequence | recombinant UMI read abundance (log10)
51 | ATCCGCTCATGGACCGGTTTTCCCGGTAATCCGTATTTGCG (site ATCCGCTCTCG) | 1.19
52 | ATCCTAGCATGGACCGGTTTTCCCGGTAATCCGTATTTGAG (site ATCCAAGCTCT) | 0.122
53 | ATCCTAGCATGGACCGGTTTTCCCGGTAATCCGTATTTGAG (site ATCCCAGCTCT) | 0.0117
54 | ATCCTAGCATGGACCGGTTTTCCCGGTAATCCGTATTTGAG (site ATCCGAGCTCT) | 0.0408
55 | ATCCTAGCATGGACCGGTTTTCCCGGTAATCCGTATTTGAG (site ATCCTAGCTCT) | 0.651
56 | ATCCTAGCATGGACCGGTTTTCCCGGTAATCCGTATTTGTT (site AACCTAGCTAA) | 0.00989
57 | ATCCTAGCATGGACCGGTTTTCCCGGTAATCCGTATTTGTT (site ACCCTAGCTAA) | 0.0137
58 | ATCCTAGCATGGACCGGTTTTCCCGGTAATCCGTATTTGTT (site AGCCTAGCTAA) | 0.0169
59 | ATCCTAGCATGGACCGGTTTTCCCGGTAATCCGTATTTGTT (site ATCCTAGCTAA) | 0.0177
60 | ATCCTTGCATGGACCGGTTTTCCCGGTAATCCGTATTTGAT (site ATCCTTGCTAT) | 2.19
61 | ATCGACCCATGGACCGGTTTTCCCGGTAATCCGTATTTGGT (site ATCGACCCTAC) | 0
62 | ATCGACCCATGGACCGGTTTTCCCGGTAATCCGTATTTGTG (site ATCGACCCTCA) | 0.0241
63 | ATCGCTGCATGGACCGGTTTTCCCGGTAATCCGTATTTGCC (site ATCGCTGCTGG) | 2.27
64 | ATCGGGTCATGGACCGGTTTTCCCGGTAATCCGTATTTGGT (site ATCGGGTCTAC) | 1.85
65 | ATCGTATCATGGACCGGTTTTCCCGGTAATCCGTATTTGTC (site ATCGTATCTGA) | 3.35
66 | ATCGTCCCATGGACCGGTTTTCCCGGTAATCCGTATTTGAT (site ATCGTCCCTAT) | 0.563
67 | ATCTACCCATGGACCGGTTTTCCCGGTAATCCGTATTTGGC (site ATCTACCCTGC) | 0.584
68 | ATCTAGACATGGACCGGTTTTCCCGGTAATCCGTATTTGGG (site AACTAGACTCC) | 0.0333
69 | ATCTAGACATGGACCGGTTTTCCCGGTAATCCGTATTTGGG (site ACCTAGACTCC) | 0.00659
70 | ATCTAGACATGGACCGGTTTTCCCGGTAATCCGTATTTGGG (site AGCTAGACTCC) | 0.313
71 | ATCTAGACATGGACCGGTTTTCCCGGTAATCCGTATTTGGG (site ATCTAGACTCC) | 0.0102
72 | ATCTATACATGGACCGGTTTTCCCGGTAATCCGTATTTGAT (site ATCTATACTAT) | 1.02
73 | ATCTATACATGGACCGGTTTTCCCGGTAATCCGTATTTGAT (site ATCTATACTCT) | 0.147
74 | ATCTATACATGGACCGGTTTTCCCGGTAATCCGTATTTGAT (site ATCTATACTGT) | 0
75 | ATCTATACATGGACCGGTTTTCCCGGTAATCCGTATTTGAT (site ATCTATACTTT) | 0.00795
